Series [1] addresses Melanin-concentrating hormone receptor 1 (Homo sapiens, UniProt Q99705). As to the kind of experiment: Antagonist activity against human MCHR1 expressed in CHO cells by Gal4/Elk1-Luc reporter assay. Type of series: functional, cell-based. (In general: A reporter such as luciferase makes a cellular process visible.)
The nature of series [2]: Volume of distribution in rat at 3 mg/kg, iv and 10 mg/kg, po. The settings on record: in vivo, read-out: Vss. The series is classed as ADME, organism-based.
Series [3] has as its system Mus musculus. Nature of the series: Concentration in DIO AKR/J mouse brain at 1 mg/kg, po. Also noted: dose 1 mg/kg, route oral. The conditions noted are these: in vivo. Type of series: ADME, organism-based.
Series [4] in a line: Ratio of drug concentration in brain to serum in DIO AKR/J mouse at 10 mg/kg, po.
Series [5] relates to Mus musculus. Nature of the series: Concentration in DIO AKR/J mouse brain at 10 mg/kg, po. The settings on record: in vivo. Type of series: ADME, organism-based. More on the design: dose 10 mg/kg, route oral.
The nature of series [6]: Oral bioavailability in rat at 3 mg/kg, iv and 10 mg/kg, po. The series is classed as ADME, organism-based. The conditions noted are these: in vivo.
The test system of series [7] is Mus musculus. Nature of the series: Concentration in DIO AKR/J mouse serum at 3 mg/kg, po. The series is classed as ADME, organism-based. Also noted: dose 3 mg/kg, route oral. The settings on record: in vivo.
Series [8] relates to Mus musculus. Nature of the series: Reduction in body weight of DIO AKR/J mouse relative to control at 1 mg/kg/day, po after 26 days. The series is classed as functional. Also noted: scale not given: the % may be the effect or the level left.
A short description of series [9]: Total clearance in rat at 3 mg/kg, iv and 10 mg/kg, po. Type of series: ADME, organism-based. The settings on record: in vivo.
Series [10] is described as follows: Ratio of drug concentration in brain to serum in DIO AKR/J mouse at 3 mg/kg, po.
In series [11] the test system is Mus musculus. Nature of the series: Concentration in DIO AKR/J mouse serum at 1 mg/kg, po. The conditions noted are these: in vivo. More on the design: dose 1 mg/kg, route oral. Type of series: ADME, organism-based.
Series [12] in a line: Half life in rat at 3 mg/kg, iv. Type of series: ADME, organism-based. Also noted: dose 3 mg/kg, route intravenous. The settings on record: in vivo.
The nature of series [13]: Ratio of drug concentration in brain to serum in DIO AKR/J mouse at 1 mg/kg, po.
Series [14] concerns Mus musculus. Nature of the series: Reduction in body weight of DIO AKR/J mouse relative to control at 10 mg/kg/day, po after 26 days. Type of series: functional. More on the design: scale not given: the % may be the effect or the level left.
Series [15] deals with Mus musculus. As to the kind of experiment: Concentration in DIO AKR/J mouse brain at 3 mg/kg, po. The series is classed as ADME, organism-based. More on the design: dose 3 mg/kg, route oral. The settings on record: in vivo.
Series [16] has as its system Mus musculus. Nature of the series: Reduction in body weight of DIO AKR/J mouse relative to control at 3 mg/kg/day, po after 26 days. Type of series: functional. More on the design: scale not given: the % may be the effect or the level left.
For series [17], the system named is Mus musculus. Nature of the series: Concentration in DIO AKR/J mouse serum at 10 mg/kg, po. The series is classed as ADME, organism-based. Also noted: dose 10 mg/kg, route oral. The conditions noted are these: in vivo.

The values below come from ChEMBL document CHEMBL1137354, “Potent, selective, and orally efficacious antagonists of melanin-concentrating hormone receptor 1” (J Med Chem, 2006).

Melanin-concentrating hormone receptor 1, sequence (Q99705 whole entry, the tested form may be a part): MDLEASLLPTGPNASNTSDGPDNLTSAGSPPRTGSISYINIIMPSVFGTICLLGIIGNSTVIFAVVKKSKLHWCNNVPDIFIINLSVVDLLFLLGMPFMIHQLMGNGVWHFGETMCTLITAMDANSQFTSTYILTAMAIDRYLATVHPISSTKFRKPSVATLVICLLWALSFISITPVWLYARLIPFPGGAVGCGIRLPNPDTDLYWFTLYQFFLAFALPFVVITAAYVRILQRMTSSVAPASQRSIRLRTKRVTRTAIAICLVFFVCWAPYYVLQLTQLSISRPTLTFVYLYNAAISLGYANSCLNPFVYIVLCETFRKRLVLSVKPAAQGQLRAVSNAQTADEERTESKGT

On to `N#Cc1ccc(-c2cc3ncn(-c4ccc5nc(CN6CCOCC6)ccc5c4)c(=O)c3s2)cc1`, for which the IC50 in [1] came out at 478 nM.

Take `CCN1CCN(Cc2ccc3cc(-n4cnc5cc(-c6ccc(Cl)cc6)sc5c4=O)ccc3n2)CC1`: the IC50 in series [1] stood at 6.2 nM.

For `CC(C)(C)c1ccc(-c2cc3ncn(-c4ccc5nc(CN6CCOCC6)ccc5c4)c(=O)c3s2)cc1`, in [1], the half-maximal inhibitory concentration (IC50) is 501 nM.

In the case of `CN1CCN(Cc2ccc3cc(-n4cnc5cc(-c6ccc(Cl)cc6)sc5c4=O)ccc3n2)CC1`, the Vd in series [2] is 19 L/kg. Also, the Drug uptake in the series on Mus musculus [3] amounted to 1421 ng/g; in the series with Mus musculus [5], 13093 ng/g; with Mus musculus [7], 178 ng/mL; in the series on Mus musculus [11], 44 ng/mL; in the series with Mus musculus [15], 5508 ng/g; in the series on Mus musculus [17], 414 ng/mL. Moreover, the Kp in series [4], in [10] and in series [13] was 31 throughout. For the same molecule, the bioavailability in series [6] came to 98%. Also, the Activity in the series on Mus musculus [8] was 4.8%; with Mus musculus [14], 16.9%; with Mus musculus [16] it was 9.4%. This molecule displayed a clearance in [9] of 39 mL/min/kg. Also, the half-life in [12] was 7.7 h. In series [1], this molecule registered an IC50 of 3.1 nM.

Consider `CN1CCN(CC2CNc3cc(-n4cnc5cc(-c6ccc(Cl)cc6)sc5c4=O)ccc3O2)CC1` (configuration not stated), for which half-maximal inhibition in [1] (IC50) required 3.5 nM.

With `O=c1c2sc(-c3ccc(Cl)cc3)cc2ncn1-c1ccc2nc(CN3CCC(c4ccc(C(F)(F)F)cc4)CC3)ccc2c1`, the Vd in [2] came to 1.1 L/kg. Further, in series [6], the bioavailability came out at 18%. Besides, in series [9], the clearance turned out to be 3.7 mL/min/kg. The molecule further had a half-life in series [12] of 8.5 h. In [1], this molecule yielded an IC50 of 6.1 nM.

The molecule `O=c1c2sc(-c3ccccc3Cl)cc2ncn1-c1ccc2nc(CN3CCOCC3)ccc2c1` registered an IC50 in series [1] of 1260 nM.

In [1], `O=c1c2sc(-c3ccc(Br)cc3)cc2ncn1-c1ccc2nc(CN3CCOCC3)ccc2c1` displayed an IC50 of 40 nM.

As for `O=c1c2sc(-c3ccc(Cl)cc3)cc2ncn1-c1ccc2c(c1)NCC(CN1CC[C@@H](O)C1)O2` (some centres not stated), the IC50 in [1] turned out to be 3.4 nM.

In series [1], `CN(Cc1ccc2cc(-n3cnc4cc(-c5ccc(Cl)cc5)sc4c3=O)ccc2n1)c1ccccc1` gave an IC50 of 87 nM.

Molecule `CN(C)C[C@@H]1COc2cc(-n3cnc4cc(-c5ccc(Cl)cc5)sc4c3=O)ccc2O1` returned a half-inhibitory concentration (IC50) in series [1] of 3.2 nM.

In turn, `O=c1c2sc(-c3ccc(Cl)cc3)cc2ncn1-c1ccc2ncccc2c1` gave an IC50 in series [1] of 63 nM.

For `CN(C)CC1CNc2cc(-n3cnc4cc(-c5ccc(Cl)cc5)sc4c3=O)ccc2O1` (configuration not stated), the Vd in series [2] stood at 27 L/kg. In series [6], this molecule yielded a bioavailability of 75%. The clearance in series [9] is 88 mL/min/kg. The half-life in [12] was 8 h. Further, the IC50 in [1] came to 3.2 nM.

As for `O=c1c2sc(-c3ccc(Cl)cc3)cc2ncn1-c1ccc2nc(CN3CCC(c4ccccc4)CC3)ccc2c1`, the Vd in series [2] turned out to be 4.3 L/kg. In addition, the bioavailability in [6] is 19%. The molecule further came in with a clearance in [9] of 11 mL/min/kg. In addition, in series [12], the half-life is 8 h. The molecule further came in with an IC50 in series [1] of 1.3 nM.

Regarding `CN(C)Cc1ccc2cc(-n3cnc4cc(-c5ccc(Cl)cc5)sc4c3=O)ccc2n1`, the IC50 in [1] was 0.74 nM.

`O=c1c2sc(-c3ccc(Cl)cc3)cc2ncn1-c1ccc2nc(CN3CCCCC3)ccc2c1` had an IC50 in series [1] of 0.89 nM.

`O=c1c2sc(-c3ccc(Cl)cc3)cc2ncn1-c1ccc2nc(CN3CCC(N4CCCC4)CC3)ccc2c1` came in with an IC50 in [1] of 5.6 nM.

Take `O=c1c2sc(-c3ccc(Cl)cc3)cc2ncn1-c1ccc2nc(Cn3ccnc3)ccc2c1`: the IC50 in series [1] turned out to be 2 nM.

In turn, `O=c1c2sc(-c3ccc(Cl)cc3)cc2ncn1-c1ccc2c(c1)OC[C@@H](CN1CCCC1)O2` showed an IC50 in series [1] of 7 nM.

For `CCC(C)c1ccc(-c2cc3ncn(-c4ccc5nc(CN6CCOCC6)ccc5c4)c(=O)c3s2)cc1` (configuration not stated), the IC50 in [1] was 200 nM.

For the molecule `O=c1c2sc(-c3ccccc3)cc2ncn1-c1ccc2nc(CN3CCOCC3)ccc2c1`, half-maximal inhibition in [1] (IC50) was put at 794 nM.

As for `O=c1c2sc(-c3ccc(Cl)cc3)cc2ncn1-c1ccc2nc(CN3CCC(CCN4CCCC4)CC3)ccc2c1`, the IC50 in series [1] was 1.5 nM.

As to `O=c1c2sc(-c3ccc(Cl)cc3)cc2ncn1-c1ccc2nc(CN3CCC(c4ccc(F)cc4)CC3)ccc2c1`, the Vd in series [2] worked out at 2.3 L/kg. In series [6], this molecule had a bioavailability of 30%. Further, the clearance in series [9] worked out at 2.9 mL/min/kg. This molecule had a half-life in [12] of 16 h. In series [1], this molecule returned an IC50 of 3.1 nM.

Consider `O=c1c2sc(-c3ccc(C(F)(F)F)cc3)cc2ncn1-c1ccc2nc(CN3CCOCC3)ccc2c1`, for which 36 nM corresponded to half-maximal inhibition in [1] (IC50).

`CN(C)CC1CN(S(=O)(=O)c2ccccc2)c2cc(-n3cnc4cc(-c5ccc(Cl)cc5)sc4c3=O)ccc2O1` (configuration not stated): half-maximal inhibition in [1] (IC50) was put at 6920 nM.

`COc1ccc(-c2cc3ncn(-c4ccc5nc(CN6CCOCC6)ccc5c4)c(=O)c3s2)cc1` showed an IC50 in series [1] of 31 nM.

`O=c1c2sc(-c3ccc(Cl)cc3)cc2ncn1-c1ccc2c(c1)NCC(CN1CCOCC1)O2` (configuration not stated) returned a half-maximal inhibitory concentration (IC50) in series [1] of 8.5 nM.

In series [1], `O=c1c2sc(-c3ccc(Cl)cc3)cc2ncn1-c1ccc2nc(CN3CCOCC3)ccc2c1` had an IC50 of 4.9 nM.

In series [1], `O=c1c2sc(-c3cccc(Cl)c3)cc2ncn1-c1ccc2nc(CN3CCOCC3)ccc2c1` showed an IC50 of 3980 nM.

For the molecule `O=c1c2sc(-c3ccc(Cl)cc3)cc2ncn1-c1ccc2nc(CN3CCN(CCCN4CCOCC4)CC3)ccc2c1`, the IC50 in series [1] stood at 37 nM.

As to `CN(C)CC1COc2cc(-n3cnc4cc(-c5ccc(Cl)cc5)sc4c3=O)ccc2O1` (configuration not stated), in series [1], the IC50 came out at 7.7 nM.

In the case of `O=c1c2sc(-c3ccc(Cl)cc3)cc2ncn1-c1ccc2c(c1)NCC(CN1CCCC1)O2` (configuration not stated), the IC50 in [1] was 2.3 nM.

Molecule `O=c1c2sc(-c3ccc(Cl)cc3)cc2ncn1-c1ccc2nc(CN3CCCC3)ccc2c1` displayed an IC50 in series [1] of 1 nM.

Molecule `O=c1c2sc(-c3ccc(Cl)cc3)cc2ncn1-c1ccc2nc(CN3CCN(CCN4CCOCC4)CC3)ccc2c1` had an IC50 in series [1] of 19 nM.

With `O=c1c2sc(-c3ccc(Cl)cc3)cc2ncn1-c1ccc2c(c1)NCC(CN1CC[C@H](O)C1)O2` (some centres not stated), the IC50 in series [1] came to 5.3 nM.

In series [1], `O=c1c2sc(-c3ccc(F)cc3)cc2ncn1-c1ccc2nc(CN3CCOCC3)ccc2c1` registered an IC50 of 501 nM.

Take `CN(C)C[C@H]1COc2cc(-n3cnc4cc(-c5ccc(Cl)cc5)sc4c3=O)ccc2O1`: the IC50 in series [1] came to 25 nM.

In turn, `O=c1c2sc(-c3ccc(Cl)cc3)cc2ncn1-c1ccc2nc(CN3CCN(c4ccccc4)CC3)ccc2c1` gave a 50% inhibitory concentration (IC50) in series [1] of 3.8 nM.

Regarding `CN(C)CC1CN(S(C)(=O)=O)c2cc(-n3cnc4cc(-c5ccc(Cl)cc5)sc4c3=O)ccc2O1` (configuration not stated), in series [1], half-maximal inhibition (IC50) required 4170 nM.

As for `O=c1c2sc(-c3ccc(Cl)cc3)cc2ncn1-c1ccc2c(c1)OC[C@H](CN1CCCC1)O2`, the Vd in series [2] was found to be 22 L/kg. In series [6], this molecule gave a bioavailability of 65%. The molecule also gave a clearance in [9] of 66 mL/min/kg. Also, the half-life in series [12] is 6.1 h. Besides, the IC50 in series [1] was 24 nM.

`O=c1c2sc(-c3ccc(Cl)cc3)cc2ncn1-c1ccc2nc(CO)ccc2c1`: the IC50 in series [1] was 3.5 nM.

As a reminder, the IC50 is the midpoint of a concentration-inhibition curve. In general, Kp refers to tissue or fluid exposure divided by exposure in the circulation. As a reminder, the bioavailability is the share of a dose that reaches the circulation, judged against a reference dose that is usually intravenous. In general, half-life refers to the time needed for the level to fall by half in the phase considered.
